Data reported in patent US20220127568A1, “COMPOSITIONS AND METHODS FOR GENERATING HAIR CELLS BY INHIBITING EPIGENETIC TARGETS” (Frequency Therapeutics, Inc., priority 2019, published 2022).
Counter-ions that a name gives are not always drawn. Like-named read-outs stand apart in the source and are kept apart here.

Legend:
KDM = settings: literature cell potency, KDM inhibitors; cited from earlier work
KDM4 = settings: Table 9; read-out: Select KDM4; cited from earlier work
[1] = system: Lgr5 GFP+ cochlear progenitor cells; experiment: Lgr5+ Assay (Stem Cell Proliferation Assay); type: cell-based; settings: for Lgr5+ Assay: active concentration range
KDM7 = settings: Table 9; read-out: Select KDM7; cited from earlier work
[2] = cited from earlier work
KDM6 = settings: Table 9; read-out: Select KDM6; cited from earlier work
KDM5 = settings: Table 9; read-out: Select KDM5; cited from earlier work
KDM1 = settings: Table 9, first KDM data cell; read-out: Select KDM1; cited from earlier work
LSD1 = LSD1 (Homo sapiens, UniProt O60341); settings: literature cell potency, LSD1 inhibitors; cited from earlier work
[3] = system: Lgr5+ cochlear progenitor cells; experiment: Quantification of Lgr5+ cochlear progenitor cell proliferation, expansion and enrichment (3D Matrigel culture, Celigo imaging, GFP(+) cell area); type: cell-based, mouse
KDM1b = molecular target: T1, KDM1b (Homo sapiens, UniProt Q8NB78); settings: Table 1; read-out: Select KDM1b; cited from earlier work
T1 sequence (Q8NB78 1-822): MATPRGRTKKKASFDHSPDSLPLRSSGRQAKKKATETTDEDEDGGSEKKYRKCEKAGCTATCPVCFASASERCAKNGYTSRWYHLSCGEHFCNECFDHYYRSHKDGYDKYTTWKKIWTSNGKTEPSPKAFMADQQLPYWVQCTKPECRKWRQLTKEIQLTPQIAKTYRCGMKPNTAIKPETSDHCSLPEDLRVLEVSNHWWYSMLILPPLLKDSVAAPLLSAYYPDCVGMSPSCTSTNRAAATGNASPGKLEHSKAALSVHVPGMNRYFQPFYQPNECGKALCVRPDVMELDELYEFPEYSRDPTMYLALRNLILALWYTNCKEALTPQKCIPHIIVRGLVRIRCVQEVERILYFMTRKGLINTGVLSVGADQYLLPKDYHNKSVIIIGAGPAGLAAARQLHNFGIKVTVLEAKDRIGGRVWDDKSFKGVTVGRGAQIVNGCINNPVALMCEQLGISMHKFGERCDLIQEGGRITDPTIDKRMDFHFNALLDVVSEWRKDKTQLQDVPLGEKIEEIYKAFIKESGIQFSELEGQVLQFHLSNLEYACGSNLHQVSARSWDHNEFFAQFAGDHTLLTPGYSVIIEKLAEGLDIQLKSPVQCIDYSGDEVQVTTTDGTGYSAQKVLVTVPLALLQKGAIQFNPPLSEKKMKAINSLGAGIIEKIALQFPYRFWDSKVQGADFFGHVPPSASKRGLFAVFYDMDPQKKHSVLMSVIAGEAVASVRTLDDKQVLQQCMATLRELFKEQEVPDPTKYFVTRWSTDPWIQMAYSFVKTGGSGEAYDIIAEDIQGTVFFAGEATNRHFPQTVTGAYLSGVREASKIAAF

DOT1L = DOT1L (Homo sapiens, UniProt Q8TEK3); settings: literature cell potency, DOT1L inhibitors; cited from earlier work
MAO = settings: cited from earlier work
GSK-3 alpha = GSK-3 alpha (Homo sapiens, UniProt P49840); settings: Table 2; cited from earlier work
GSK-3 alpha, sequence (P49840 whole entry): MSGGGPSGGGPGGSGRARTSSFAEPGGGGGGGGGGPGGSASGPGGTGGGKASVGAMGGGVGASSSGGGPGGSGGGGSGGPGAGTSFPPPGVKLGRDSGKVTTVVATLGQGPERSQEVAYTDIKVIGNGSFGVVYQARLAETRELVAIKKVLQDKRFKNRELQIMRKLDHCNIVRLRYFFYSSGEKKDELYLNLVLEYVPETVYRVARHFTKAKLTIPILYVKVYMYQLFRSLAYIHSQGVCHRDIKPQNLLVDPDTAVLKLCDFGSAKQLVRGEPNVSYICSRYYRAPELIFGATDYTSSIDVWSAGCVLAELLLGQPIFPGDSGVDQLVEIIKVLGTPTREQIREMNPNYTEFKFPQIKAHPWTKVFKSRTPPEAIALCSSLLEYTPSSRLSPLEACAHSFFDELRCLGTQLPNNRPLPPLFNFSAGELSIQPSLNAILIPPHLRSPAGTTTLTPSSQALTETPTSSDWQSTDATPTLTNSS

DOT1L, sequence (Q8TEK3 whole entry, species assumed): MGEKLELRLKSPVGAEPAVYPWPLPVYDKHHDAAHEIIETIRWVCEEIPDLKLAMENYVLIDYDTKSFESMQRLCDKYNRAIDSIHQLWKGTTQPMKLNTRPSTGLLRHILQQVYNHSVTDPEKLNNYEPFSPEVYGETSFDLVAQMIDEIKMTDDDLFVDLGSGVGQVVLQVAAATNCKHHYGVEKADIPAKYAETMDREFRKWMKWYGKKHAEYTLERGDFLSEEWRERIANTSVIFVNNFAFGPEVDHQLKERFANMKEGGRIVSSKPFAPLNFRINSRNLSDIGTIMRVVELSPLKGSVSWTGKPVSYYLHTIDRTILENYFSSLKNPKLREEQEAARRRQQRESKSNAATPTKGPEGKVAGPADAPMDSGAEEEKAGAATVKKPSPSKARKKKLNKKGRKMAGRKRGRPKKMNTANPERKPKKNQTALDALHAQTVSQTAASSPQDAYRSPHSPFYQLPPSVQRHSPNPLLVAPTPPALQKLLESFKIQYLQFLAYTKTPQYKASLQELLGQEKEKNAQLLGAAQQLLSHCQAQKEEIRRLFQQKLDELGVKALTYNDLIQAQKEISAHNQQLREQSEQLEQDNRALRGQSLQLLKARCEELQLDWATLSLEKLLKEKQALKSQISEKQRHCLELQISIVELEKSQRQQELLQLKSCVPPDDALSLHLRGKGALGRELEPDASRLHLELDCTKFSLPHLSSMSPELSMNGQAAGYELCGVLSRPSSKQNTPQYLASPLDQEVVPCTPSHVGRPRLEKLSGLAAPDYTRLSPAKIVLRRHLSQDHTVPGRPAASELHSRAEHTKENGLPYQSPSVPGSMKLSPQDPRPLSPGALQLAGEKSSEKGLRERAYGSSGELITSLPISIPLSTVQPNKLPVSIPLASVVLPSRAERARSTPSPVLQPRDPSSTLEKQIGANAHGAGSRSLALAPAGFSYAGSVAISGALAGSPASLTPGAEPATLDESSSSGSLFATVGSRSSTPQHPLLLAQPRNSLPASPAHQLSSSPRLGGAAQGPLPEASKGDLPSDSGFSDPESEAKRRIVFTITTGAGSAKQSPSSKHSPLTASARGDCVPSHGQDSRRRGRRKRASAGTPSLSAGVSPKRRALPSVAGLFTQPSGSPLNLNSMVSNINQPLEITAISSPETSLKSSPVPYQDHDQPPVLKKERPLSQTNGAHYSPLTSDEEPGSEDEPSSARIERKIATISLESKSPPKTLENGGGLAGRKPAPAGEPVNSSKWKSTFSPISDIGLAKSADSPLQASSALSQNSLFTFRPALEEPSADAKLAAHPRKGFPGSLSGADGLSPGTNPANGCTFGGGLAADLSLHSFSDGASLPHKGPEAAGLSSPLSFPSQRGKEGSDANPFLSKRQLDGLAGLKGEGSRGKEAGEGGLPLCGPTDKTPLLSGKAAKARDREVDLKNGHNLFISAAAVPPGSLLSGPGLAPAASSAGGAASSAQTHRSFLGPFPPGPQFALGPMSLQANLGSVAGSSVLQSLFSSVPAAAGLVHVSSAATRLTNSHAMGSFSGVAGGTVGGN

## O=C(O)CCN(O)C(=O)CCCCCCCCC1CC1 [TC-E 5002]
KDM
  Lit Cell: 16 to 40 µM
KDM4
  IC50: 83000 nM
[1]; FIG. 36A: 0.37 μM TC-E 5002 + 3 μM CHIR99021 + 1 mM VPA in EFI vs EFI-C, EFI-CV
  Lgr5 GFP(+) cell count: enhances Lgr5 GFP+ progenitor cell proliferation
[1]; KDM inhibitors
  Lgr5+ Assay: 0.12 to 10 µM
KDM7
  IC50: 200 nM
[2]; KDM inhibitors
  Human In Vivo Conc: 0.12 to 10 µM
KDM6
  IC50: > 100000 nM
KDM5
  IC50: 55000 nM

## CN1CCN(C(=O)CN[C@@H]2C[C@H]2c2ccc(OCc3ccccc3)cc2)CC1 [Compound 1]
KDM1
  IC50: 220 nM
KDM7
  IC50: 220 nM
KDM5
  IC50: 190 nM

## N[C@H]1CC[C@H](N[C@@H]2C[C@H]2c2ccccc2)CC1 [ORY-1001]
LSD1
  Literat. Cell: 0.5 to 3 nM
[1]; FIG. 6A: 0-30 μM ORY-1001 alone in EFI vs EFI-C, EFI-CV
  Lgr5 GFP(+) cell area: does not proliferate
[1]; FIG. 6B: 0-30 μM ORY-1001 alone in EFI vs EFI-C, EFI-CV
  Lgr5 GFP(+) cell area percentage: does not enrich
[1]; FIG. 7A: 41 nM ORY-1001 + 4 uM CHIR99021 + 1 mM VPA in EFI vs CHIR+VPA
  Lgr5 GFP(+) cell area: further enhances Lgr5 GFP+ progenitor cell proliferation
[1]; FIG. 7B: 41 nM ORY-1001 + 4 uM CHIR99021 + 1 mM VPA in EFI vs CHIR+VPA
  enrichment of Lgr5 GFP+ cells (y-axis: Lgr5 GFP(+) cell area): further enhances enrichment
[3]; inhibitor 41 nM with CHIR99021 (4 μM) and VPA (1 mM)
  Lgr5+ progenitor cell proliferation and enrichment: enhanced Lgr5+ progenitor cell proliferation and enrichment
[3]; inhibitor alone
  proliferation or enrichment of cochlear progenitor cells: does not promote the proliferation or enrichment
KDM1b
  IC50: > 100000 nM
[2]; human plasma, LSD1 inhibitors
  Human Plasma Conc.: 1 to 100 nM

## CC(C)N(C[C@H]1O[C@@H](n2cnc3c(N)ncnc32)[C@H](O)[C@@H]1O)[C@H]1C[C@@H](CCc2nc3cc(C(C)(C)C)ccc3[nH]2)C1 [pinometostat]
DOT1L
  Lit Cell: 2.7 nM
[2]; DOT1L inhibitors
  Human In Vivo Conc: (1-10 uM) μM
[2]; total plasma Css
  Human In Vivo Conc: Total plasma Css: 800 to 1600 ng/mL
  Human In Vivo Conc: Total plasma Css (molar, in brackets): (1.42-2.94 uM)

## NNCCc1ccccc1 [Phenelzine sulfate]
LSD1
  Literat. Cell: 900 nM
MAO
  MAO inhib in Cell: 900 nM
[2]; human plasma Cmax, read-out: Human Plasma Conc. Cmax (molar, in brackets)
  Cmax: 73 to 440 nM

## Cc1ccc(C(=O)Nc2c[nH]nc2C(=O)NCCCOC(C)C)cn1 [GSK XX1I]
[1]; Wnt agonists (GSK3 inhibitors)
  Lgr5+ Assay: 0.2 to 1 µM
GSK-3 alpha
  IC50: 2.3 nM

## CCOC(=O)CCNc1cc(N2CCc3ccccc3CC2)nc(-c2ccccn2)n1 [GSK-J4]
KDM6
  IC50: 28 nM
KDM5
  IC50: 170 nM
